# Source: patent publication US9302999B2, “Substituted triazoles as herbicides” (E. I. DU PONT DE NEMOURS AND COMPANY, priority 2012, dated 2016)
# Key:
# Assay type in all cases: in vivo
# [1] = test system: crabgrass, large (large crabgrass, Digitaria sanguinalis); assay: Test F pre-/postemergence: crabgrass, large; settings: Preemergence
# From the text: (§1) Seeds of plant species selected from corn (Zea mays), soybean (Glycine max), velvetleaf (Abutilon theophrasti), lambsquarters (Chenopodium album), poinsettia, wild (wild poinsettia, Euphorbia heterophylla), pigweed, palmer (palmer pigweed, Amaranthus palmeri), waterhemp (common waterhemp, Amaranthus rudis), surinam grass (Brachiaria decumbens), crabgrass, Brazil (Brazilian crabgrass, Digitaria horizontalis), panicum, fall (fall panicum Panicum dichotomiflorum), crabgrass, large (large crabgrass, Digitaria sanguinalis), foxtail, giant (giant foxtail, Setaria faberii), foxtail, green (green foxtail Setaria viridis), goosegrass (Eleusine indica), ragweed (common ragweed, Ambrosia elatior), barnyardgrass (Echinochloa crus-galli), sandbur (southern sandbur, Cenchrus echinatus), arrowleaf sida (Sida rhombifolia), ryegrass, Italian (Italian ryegrass, Lolium multiflorum), dayflower, VA (Virginia (VA) dayflower, Commelina virginica), field bindweed (Convolvulus arvensis), cocklebur (common cocklebur, Xanthium strumarium), morningglory (Ipomoea coccinea), nightshade (eastern black nightshade, Solanum ptycanthum), kochia (Kochia scoparia), nutsedge, yellow (yellow nutsedge, Cyperus esculentus), johnsongrass (Sorghum halepense), smartweed (ladysthumb smartweed, Polygonum persicaria), and beggarticks (hairy beggarticks, Bidens pilosa), were planted into a silt loam soil and treated preemergence with test chemicals formulated in a non-phytotoxic solvent mixture which included a surfactant. At the same time, plants selected from these crop and weed species and also pigweed (Amaranthus retroflexus), waterhemp_RES1 (ALS/Triazine resistant common waterhemp, Amaranthus rudis) and waterhemp_RES2 (ALS/HPPD resistant common waterhemp, Amaranthus rudis) were planted in pots containing a planting medium comprising spaghnum peat moss, vermiculite, wetting agent and starter nutrients treated with postemergence applications of some of the test chemicals formulated in the same manner. Plants ranged in height from 2 to 18 cm for postemergence treatments (1- to 4-leaf stage).
# (§2) Treated plants and controls were maintained in a greenhouse for 14 to 21 days, after which time all species were compared to controls and visually evaluated. Plant response ratings, summarized in Table E, are based on a scale of 0 to 100 where 0 is no effect and 100 is complete control. A dash (-) response means no test result.
# [2] = test system: dayflower, VA (Virginia (VA) dayflower, Commelina virginica); assay: Test F pre-/postemergence: dayflower, VA; settings: Preemergence
# From the text: as §1, §2
# [3] = test system: lambsquarters (Chenopodium album); assay: Test F pre-/postemergence: lambsquarters; settings: Preemergence
# From the text: as §1, §2
# [4] = test system: field bindweed (Convolvulus arvensis); assay: Test F pre-/postemergence: field bindweed; settings: Preemergence
# Method in brief: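 Preemergence treatment of seeds sown in silt loam soil, and postemergence treatment of plants 2–18 cm tall (1- to 4-leaf stage), with compounds in non-phytotoxic solvent plus surfactant. Greenhouse 14–21 days, then visual rating versus controls on 0–100 scale (100 = complete control).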
# [5] = test system: chamomile (scentless chamomile, Matricaria inodora); assay: Test D pre-/postemergence: chamomile
# Method in brief: (§3)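 Species were sown in silt loam and sprayed preemergence, or grown in peat/vermiculite medium and sprayed postemergence at the 1- to 4-leaf stage (2–18 cm), with compounds in a surfactant-containing solvent. Injury was visually rated against untreated controls after 14–21 days, on a 0 (no effect) to 100 (complete control) scale.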
# [6] = test system: wheat, spring (spring wheat, Triticum aestivum); assay: Test D pre-/postemergence: wheat, spring
# Method in brief: as §3
# [7] = test system: bromegrass, downy (downy bromegrass, Bromus tectorum); assay: Test D pre-/postemergence: bromegrass, downy
# Method in brief: as §3
# [8] = test system: field poppy (Papaver rhoeas); assay: Test D pre-/postemergence: field poppy
# Method in brief: as §3
# [9] = test system: canarygrass (Phalaris minor); assay: Test D pre-/postemergence: canarygrass
# Method in brief: as §3
# [10] = 16 g ai/ha, scale 0 to 100, 0 no effect, 100 complete control
# [11] = 31 g ai/ha, scale 0 to 100, 0 no effect, 100 complete control
# [12] = Postemergence, 31 g ai/ha, scale 0 to 100 (0 no effect, 100 complete control)
# [13] = Postemergence, 62 g ai/ha, scale 0 to 100 (0 no effect, 100 complete control)
# [14] = Postemergence, 125 g ai/ha, scale 0 to 100, 0 no effect, 100 complete control
# [15] = Postemergence, 16 g ai/ha, scale 0 to 100
# [16] = Preemergence, 16 g ai/ha, scale 0 to 100, 0 no effect, 100 complete control
# [17] = Preemergence, 31 g ai/ha, scale 0 to 100, 0 no effect, 100 complete control
# [18] = Preemergence, 62 g ai/ha, scale 0 to 100
# [19] = Preemergence, 125 g ai/ha, scale 0 to 100
smiles,measurement,setting,value
COc1nn(-c2cccc(F)c2)nc1Cc1ccnc(C(F)(F)F)c1 [Compound 139],"Plant response rating, Crabgrass, Large",[1]; [10],30
same,"Plant response rating, Crabgrass, Large",[1]; [11],95
same,"Plant response rating, Crabgrass, Large","[1]; 62 g ai/ha, scale 0 to 100",95
same,"Plant response rating, Crabgrass, Large","[1]; 125 g ai/ha, scale 0 to 100",100
same,"Plant response rating, Crabgrass, Large","[1]; 250 g ai/ha, scale 0 to 100",100
same,"Plant response rating, Dayflower, VA",[2]; [10],0
same,"Plant response rating, Dayflower, VA",[2]; [11],5
same,"Plant response rating, Dayflower, VA","[2]; 62 g ai/ha, scale 0 to 100",30
same,"Plant response rating, Dayflower, VA","[2]; 125 g ai/ha, scale 0 to 100",60
same,"Plant response rating, Dayflower, VA","[2]; 250 g ai/ha, scale 0 to 100",65
same,"Plant response rating, Lambsquarters",[3]; [10],0
same,"Plant response rating, Lambsquarters",[3]; [11],20
same,"Plant response rating, Lambsquarters","[3]; 62 g ai/ha, scale 0 to 100",65
same,"Plant response rating, Lambsquarters","[3]; 125 g ai/ha, scale 0 to 100",90
same,"Plant response rating, Lambsquarters","[3]; 250 g ai/ha, scale 0 to 100",98
same,"Plant response rating, Field Bindweed",[4]; [10],0
same,"Plant response rating, Field Bindweed",[4]; [11],0
same,"Plant response rating, Field Bindweed","[4]; 62 g ai/ha, scale 0 to 100",0
same,"Plant response rating, Field Bindweed","[4]; 125 g ai/ha, scale 0 to 100",0
same,"Plant response rating, Field Bindweed","[4]; 250 g ai/ha, scale 0 to 100",20
Cc1nn(-c2ccc(F)cc2F)nc1Oc1ccnc(C(F)(F)F)c1 [Compound 146],"Plant response rating, Crabgrass, Large",[1]; [10],0
same,"Plant response rating, Crabgrass, Large",[1]; [11],75
same,"Plant response rating, Crabgrass, Large","[1]; 62 g ai/ha, scale 0 to 100",98
same,"Plant response rating, Crabgrass, Large","[1]; 125 g ai/ha, scale 0 to 100",98
same,"Plant response rating, Crabgrass, Large","[1]; 250 g ai/ha, scale 0 to 100",100
same,"Plant response rating, Dayflower, VA",[2]; [10],0
same,"Plant response rating, Dayflower, VA",[2]; [11],0
same,"Plant response rating, Dayflower, VA","[2]; 62 g ai/ha, scale 0 to 100",10
same,"Plant response rating, Dayflower, VA","[2]; 125 g ai/ha, scale 0 to 100",35
same,"Plant response rating, Dayflower, VA","[2]; 250 g ai/ha, scale 0 to 100",35
same,"Plant response rating, Lambsquarters",[3]; [10],0
same,"Plant response rating, Lambsquarters",[3]; [11],0
same,"Plant response rating, Lambsquarters","[3]; 62 g ai/ha, scale 0 to 100",40
same,"Plant response rating, Lambsquarters","[3]; 125 g ai/ha, scale 0 to 100",98
same,"Plant response rating, Lambsquarters","[3]; 250 g ai/ha, scale 0 to 100",98
same,"Plant response rating, Field Bindweed",[4]; [10],0
same,"Plant response rating, Field Bindweed",[4]; [11],0
same,"Plant response rating, Field Bindweed","[4]; 62 g ai/ha, scale 0 to 100",0
same,"Plant response rating, Field Bindweed","[4]; 125 g ai/ha, scale 0 to 100",0
same,"Plant response rating, Field Bindweed","[4]; 250 g ai/ha, scale 0 to 100",25
Cc1nn(-c2ccc(C(F)(F)F)c(F)c2)nc1Oc1ccnc(C(F)(F)F)c1 [Compound 148],"Plant response rating, Crabgrass, Large",[1]; [10],95
same,"Plant response rating, Crabgrass, Large",[1]; [11],100
same,"Plant response rating, Crabgrass, Large","[1]; 62 g ai/ha, scale 0 to 100",100
same,"Plant response rating, Crabgrass, Large","[1]; 125 g ai/ha, scale 0 to 100",100
same,"Plant response rating, Crabgrass, Large","[1]; 250 g ai/ha, scale 0 to 100",100
same,Plant response rating: Chamomile,[5]; [12],70
same,Plant response rating: Chamomile,[5]; [13],75
same,Plant response rating: Chamomile,[5]; [14],95
same,"Plant response rating, Chamomile",[5]; [15],60
same,"Plant response rating, Chamomile",[5]; [16],10
same,"Plant response rating, Chamomile",[5]; [17],20
same,"Plant response rating, Chamomile",[5]; [18],70
same,"Plant response rating, Chamomile",[5]; [19],100
same,"Plant response rating, Dayflower, VA",[2]; [10],0
same,"Plant response rating, Dayflower, VA",[2]; [11],40
same,"Plant response rating, Dayflower, VA","[2]; 62 g ai/ha, scale 0 to 100",40
same,"Plant response rating, Dayflower, VA","[2]; 125 g ai/ha, scale 0 to 100",65
same,"Plant response rating, Dayflower, VA","[2]; 250 g ai/ha, scale 0 to 100",90
same,"Plant response rating: Wheat, Spring",[6]; [12],10
same,"Plant response rating: Wheat, Spring",[6]; [13],20
same,"Plant response rating: Wheat, Spring",[6]; [14],25
same,"Plant response rating, Wheat, Spring",[6]; [15],10
same,"Plant response rating, Wheat, Spring",[6]; [16],0
same,"Plant response rating, Wheat, Spring",[6]; [17],0
same,"Plant response rating, Wheat, Spring",[6]; [18],0
same,"Plant response rating, Wheat, Spring",[6]; [19],5
same,"Plant response rating: Bromegrass, Downy",[7]; [12],5
same,"Plant response rating: Bromegrass, Downy",[7]; [13],15
same,"Plant response rating: Bromegrass, Downy",[7]; [14],20
same,"Plant response rating, Bromegrass, Downy",[7]; [15],5
same,"Plant response rating, Bromegrass, Downy",[7]; [16],0
same,"Plant response rating, Bromegrass, Downy",[7]; [17],0
same,"Plant response rating, Bromegrass, Downy",[7]; [18],10
same,"Plant response rating, Bromegrass, Downy",[7]; [19],20
same,Plant response rating: Field Poppy,[8]; [12],100
same,Plant response rating: Field Poppy,[8]; [13],95
same,Plant response rating: Field Poppy,[8]; [14],100
same,"Plant response rating, Field Poppy",[8]; [15],90
same,"Plant response rating, Field Poppy",[8]; [16],10
same,"Plant response rating, Field Poppy",[8]; [17],70
same,"Plant response rating, Field Poppy",[8]; [18],100
same,"Plant response rating, Field Poppy",[8]; [19],95
same,Plant response rating: Canarygrass,[9]; [12],30
same,Plant response rating: Canarygrass,[9]; [13],20
same,Plant response rating: Canarygrass,[9]; [14],70
same,"Plant response rating, Canarygrass",[9]; [15],10
same,"Plant response rating, Canarygrass",[9]; [16],0
same,"Plant response rating, Canarygrass",[9]; [17],50
same,"Plant response rating, Canarygrass",[9]; [18],60
same,"Plant response rating, Canarygrass",[9]; [19],100
same,"Plant response rating, Lambsquarters",[3]; [10],0
same,"Plant response rating, Lambsquarters",[3]; [11],50
same,"Plant response rating, Lambsquarters","[3]; 62 g ai/ha, scale 0 to 100",98
same,"Plant response rating, Lambsquarters","[3]; 125 g ai/ha, scale 0 to 100",100
same,"Plant response rating, Lambsquarters","[3]; 250 g ai/ha, scale 0 to 100",100
same,"Plant response rating, Field Bindweed",[4]; [10],0
same,"Plant response rating, Field Bindweed",[4]; [11],0
same,"Plant response rating, Field Bindweed","[4]; 62 g ai/ha, scale 0 to 100",0
same,"Plant response rating, Field Bindweed","[4]; 125 g ai/ha, scale 0 to 100",20
same,"Plant response rating, Field Bindweed","[4]; 250 g ai/ha, scale 0 to 100",50
